According to the supplement of paper PMC6045584:

Assays:
Assay in all cases: area under dose-response curve of surviving fraction (unscaled, Aref=0) (surviving fraction x log10(nM)); higher = more resistant
Conditions in all cases: exposure time: 5 days; dose range 0.5-1000 nM
ERLOTINIB = compound: C#Cc1cccc(Nc2ncnc3cc(OCCOC)c(OCCOC)cc23)c1 [ERLOTINIB]
Procedure, shortened: (§1)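 Inhibitor was applied to tumour cell lines at eight concentrations (0.5 to 1000 nM) for five days in 384-well plates. Luminescence from CellTiter-Glo, scaled to DMSO-only wells, gave surviving fractions in three screens per line, and these were fitted by 3-parameter logistic regression with the drc R package. The area under the curve is an unscaled activity area. Aref was 0, and dose was on a log10 scale.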

EVEROLIMUS = compound: CO[C@H]1C[C@@H]2CC[C@@H](C)[C@@](O)(O2)C(=O)C(=O)N2CCCC[C@H]2C(=O)O[C@H]([C@H](C)C[C@@H]2CC[C@@H](OCCO)[C@H](OC)C2)CC(=O)[C@H](C)/C=C(\C)[C@@H](O)[C@@H](OC)C(=O)[C@H](C)C[C@H](C)/C=C/C=C/C=C/1C [EVEROLIMUS]
Procedure, shortened: as §1

PLX-4720 = compound: CCCS(=O)(=O)Nc1ccc(F)c(C(=O)c2c[nH]c3ncc(Cl)cc23)c1F [PLX-4720]
Procedure, shortened: as §1

MK2206 = compound: NC1(c2ccc(-c3nc4ccn5c(=O)[nH]nc5c4cc3-c3ccccc3)cc2)CCC1 [MK2206]
Procedure, shortened: as §1

[1] = compound: Cc1nc(Nc2n[nH]c3c2CN(C(=O)N[C@H](CN(C)C)c2ccccc2)C3(C)C)c2sccc2n1
Procedure, shortened: as §1

ETOPOSIDE = compound: COc1cc([C@@H]2c3cc4c(cc3[C@@H](O[C@@H]3O[C@@H]5CO[C@@H](C)O[C@H]5[C@H](O)[C@H]3O)[C@H]3COC(=O)[C@H]23)OCO4)cc(OC)c1O [ETOPOSIDE]
Procedure, shortened: as §1

MK0752 = compound: O=C(O)CC[C@H]1CC[C@@](c2cc(F)ccc2F)(S(=O)(=O)c2ccc(Cl)cc2)CC1 [MK0752]
Procedure, shortened: as §1

VINORELBINE = compound: CCC1=C[C@@H]2CN(C1)Cc1c([nH]c3ccccc13)[C@@](C(=O)OC)(c1cc3c(cc1OC)N(C)[C@H]1[C@@](O)(C(=O)OC)[C@H](OC(C)=O)[C@]4(CC)C=CCN5CC[C@]31[C@@H]54)C2 [VINORELBINE]
Procedure, shortened: as §1

SUNITINIB = compound: CCN(CC)CCNC(=O)c1c(C)[nH]c(/C=C2\C(=O)Nc3ccc(F)cc32)c1C [SUNITINIB]
Procedure, shortened: as §1

[2] = compound: O=C(NOCC1CC1)c1ccc(F)c(F)c1Nc1ccc(I)cc1Cl
Procedure, shortened: as §1

METHOTREXATE = compound: CN(Cc1cnc2nc(N)nc(N)c2n1)c1ccc(C(=O)N[C@@H](CCC(=O)O)C(=O)O)cc1 [METHOTREXATE]
Procedure, shortened: as §1

AZD4547 = compound: COc1cc(CCc2cc(NC(=O)c3ccc(N4CC(C)NC(C)C4)cc3)n[nH]2)cc(OC)c1 [AZD4547]
Procedure, shortened: as §1

GEMCITABINE = compound: Nc1ccn([C@@H]2O[C@H](CO)[C@@H](O)C2(F)F)c(=O)n1 [GEMCITABINE]
Procedure, shortened: as §1

Row | Test System | area under dose-response curve (ERLOTINIB) | area under dose-response curve (EVEROLIMUS) | area under dose-response curve (PLX-4720) | area under dose-response curve (MK2206) | area under dose-response curve [1] | area under dose-response curve (ETOPOSIDE) | area under dose-response curve (MK0752) | area under dose-response curve (VINORELBINE) | area under dose-response curve (SUNITINIB) | area under dose-response curve [2] | area under dose-response curve (METHOTREXATE) | area under dose-response curve (AZD4547) | area under dose-response curve (GEMCITABINE)
1 | 22RV1 PROSTATE | 3.31 | 1.48 | 3.09 | 2.65 | 1.33 | 2.73 | 3.57 | 1.53 | 3.06 | 2.6 | 2.21 | 3.43 | 
2 | CADOES1 SOFT TISSUE | 2.74 | 1.49 | 3.09 | 2.82 | 2.56 | 3 | 3.14 | 2.63 | 3.22 | 2.87 | 1.82 | 3.23 | 1.18
3 | CAL51 BREAST | 3.36 | 1.23 | 3.19 | 3.16 | 0.818 | 2.79 | 3.32 | 1.28 | 2.99 | 3.12 | 1.91 | 2.67 | 0.99
4 | CAL120 BREAST | 3.02 | 1.62 | 2.96 | 3.14 | 1.08 | 2.9 | 3.37 | 1.59 | 2.74 | 2.97 | 1.67 | 2.59 | 
5 | CASKI CERVIX | 2.27 |  | 3 | 2.5 | 0.674 | 2.72 | 3.28 | 1.27 | 2.3 | 2.58 | 2.23 | 3.17 | 1.01
6 | CHLA90 AUTONOMIC GANGLIA | 3.07 | 1.36 | 2.66 | 3.16 | 1.57 | 2.94 | 3.36 | 1.69 | 2.21 | 2.38 | 3.53 | 2.77 | 1.39
7 | COLO320DM LARGE INTESTINE | 3.34 | 2.62 | 3.03 | 3.11 | 2.68 | 3.54 | 3.87 | 3.2 | 2.59 | 3.26 | 1.92 | 3.59 | 1.53
8 | DU4475 BREAST | 3.44 | 0.518 | 1.92 | 2.76 | 0.457 | 1.65 | 3.26 | 1.96 | 2.1 | 1.65 | 3.28 | 3.5 | 1.48
9 | H23 LUNG | 2.52 | 1.76 | 3.19 | 3.04 | 1.47 | 3.08 | 3.65 | 1.74 | 2.86 | 2.08 | 1.75 | 3.37 | 1.22
10 | HCC70 BREAST | 3.46 | 1.89 | 3.36 | 2.8 | 0.85 | 3.16 | 3.56 | 1.66 | 3.4 | 2.8 | 3 | 3.63 | 1.12
11 | HCC78 LUNG | 2.89 | 1.75 | 3.25 | 2.5 | 1.31 | 2.45 | 3.32 | 1.48 | 2.96 | 2.58 | 2.26 | 3.56 | 0.382
12 | HCC1954 BREAST | 2.94 | 1.2 | 1.55 | 3.11 | 1.63 | 2.69 | 3.08 | 1.3 | 1.44 | 3.07 | 3.57 | 3.05 | 1.75
13 | HCT15 LARGE INTESTINE | 3.48 | 1.86 | 2.63 | 3.46 | 2.81 | 3.09 | 3.61 | 2.64 | 2.37 | 2.63 | 1.59 | 3.52 | 1.15
14 | HOS BONE | 3.4 | 2.56 | 3.19 | 3.15 | 1.45 | 2.45 | 3.51 | 1.78 | 3.1 | 3.27 | 1.32 | 3.24 | 0.975
15 | HSSYII SYNOVIAL | 3.37 | 1.79 | 2.43 | 3.02 | 1.02 | 2.41 | 3.29 | 0.855 | 1.93 | 2.61 | 2.96 | 1.51 | 0.795
16 | JIMT1 BREAST | 3.16 | 1.88 | 3.05 | 3.01 | 2.28 | 3.23 | 3.29 | 1.24 | 2.96 | 3.11 | 1.69 | 3.41 | 1.44
17 | KPD BONE | 3.57 | 1.44 | 3.19 | 2.3 | 1.06 | 2.77 | 3.43 | 2.29 | 3.08 | 3.25 | 3.55 | 3.14 | 

Row | Test System | area under dose-response curve (ERLOTINIB) | area under dose-response curve (EVEROLIMUS) | area under dose-response curve (PLX-4720) | area under dose-response curve (MK2206) | area under dose-response curve [1] | area under dose-response curve (ETOPOSIDE) | area under dose-response curve (MK0752) | area under dose-response curve (VINORELBINE) | area under dose-response curve (SUNITINIB) | area under dose-response curve [2] | area under dose-response curve (METHOTREXATE) | area under dose-response curve (AZD4547) | area under dose-response curve (GEMCITABINE)
18 | MCF7 BREAST | 3.32 | 1.74 | 2.81 | 2.79 | 2.09 | 2.83 | 3.07 | 2.07 | 2.56 | 2.83 | 2.23 | 3.09 | 1.94
19 | MDAMB134 BREAST | 3.65 | 2.21 | 2.51 | 2.78 | 3.15 | 3.5 | 3.51 | 2.38 | 2.75 | 2.87 | 3.13 | 3.23 | 
20 | MDAMB231 BREAST | 3.4 | 2.01 | 3.25 | 3.09 | 1.79 | 3.08 | 3.28 | 1.77 | 3.4 | 3.01 | 3.12 | 3.37 | 2.29
21 | MDAMB361 BREAST | 2.9 | 2.12 | 2.92 | 2.39 | 2.83 | 3.08 | 2.88 | 2.09 | 2.37 | 3.27 | 2.76 | 3.18 | 2.69
22 | MDAMB436 BREAST | 3.36 | 2 | 2.86 | 3.01 | 2.55 | 2.79 | 3.02 | 1.99 | 2.56 | 2.96 | 2.65 | 3.36 | 1.85
23 | MDAMB468 BREAST | 3.23 | 1.93 | 3.1 | 3.04 | 0.925 | 3.72 | 3.61 | 1.33 | 3.17 | 3.21 | 2 | 3.6 | 1.09
24 | MFM223 BREAST | 4.35 | 2.56 | 2.87 | 2.57 | 1.83 | 3.2 | 3.93 | 1.45 | 2.38 | 3.55 | 4 | 1.63 | 1.99
25 | MHM BONE | 3.44 | 2.37 | 3.27 | 3.2 | 2.58 | 3.23 | 3.45 | 2.21 | 3.15 | 3.16 | 2.88 | 2.76 | 1.46
26 | NY BONE | 3.37 | 2.33 | 3.09 | 3.18 | 1.56 | 3.17 | 3.54 | 1.35 | 2.99 | 3.13 | 2.49 | 2.25 | 1.11
27 | OS25HAL BONE | 3.48 | 2.13 | 3.14 | 2.56 | 1.54 | 3.02 | 3.42 | 1.8 | 3.07 | 3.16 | 1.93 | 3.36 | 0.944
28 | PCI30 HEADNECK | 2.96 | 1.71 | 3.34 | 2.94 | 1.83 | 3.08 | 3.5 | 1.21 | 3.77 | 2.75 |  | 3.56 | 1.8
29 | SG43 HEADNECK | 2.23 | 3.01 | 3.93 | 2.3 |  | 2.8 | 3.25 | 1.93 | 3.53 | 2.18 | 2.93 | 2.62 | 2.1
30 | SNU475 LIVER | 3.21 | 1.26 | 2.43 | 3.02 | 1.98 | 3.16 | 3.31 | 2.17 | 2.27 | 2.41 | 3 | 3.14 | 1.81
31 | SYO1 SYNOVIAL | 3.34 | 1.81 | 2.17 | 2.79 | 0.731 | 2.14 | 3.26 | 1.3 | 1.69 | 2.4 | 1.91 | 2.4 | 0.79
32 | T47D BREAST | 3.73 | 2.24 | 3.2 | 2.61 | 2.87 | 2.95 | 3.56 | 1.99 | 3.18 | 3.24 | 2.28 | 3.76 | 2.72
33 | U2OS BONE | 3.46 | 2.39 | 3.23 | 3.14 | 1.35 | 2.88 | 3.56 | 2.14 | 2.94 | 3.26 | 2.4 | 2.79 | 1.49
